Patent US20250092039A1, “GLUTARIMIDE-CONTAINING PAN-KRAS-MUTANT DEGRADER COMPOUNDS AND USES THEREOF” (Tiger Biotherapeutics Inc., priority 2022, published 2025)
Like-named read-outs stand apart in the source and are kept apart here.

Legend:
KRAS-G12V/RAF1 = KRAS-G12V/RAF1 (Homo sapiens (Human), UniProt P01116, G12V); assay: KRAS/RAF1 binding inhibition assay (AlphaScreen)
Procedure, shortened: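 Binding of GppNHp-loaded KRAS G12V to the RAF1 RBD was measured by AlphaScreen with test compound present in 2% DMSO (final), 60 min incubation at 4° C. Signals were converted to % inhibition versus DMSO, and IC50 was obtained by variable-slope nonlinear regression.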

KRAS G12V = KRAS G12V (Homo sapiens (Human), UniProt P01116, G12V); assay: KRAS G12V degradation in SW620 cells (Western blot, DC50); assay type: cell-based; conditions: 24 hours
Chain of KRAS G12V (P01116-2 other isoform, or with tags, fused parts or gaps G12V): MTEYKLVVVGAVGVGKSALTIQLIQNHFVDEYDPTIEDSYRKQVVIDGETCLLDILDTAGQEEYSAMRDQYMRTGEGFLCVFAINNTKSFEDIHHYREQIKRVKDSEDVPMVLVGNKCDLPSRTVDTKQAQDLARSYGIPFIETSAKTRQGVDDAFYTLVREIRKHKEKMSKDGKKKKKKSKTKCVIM
Procedure, shortened: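 SW620 cells (homozygous KRAS G12V) were treated with compound for 24 hours at 37° C. KRAS in lysates was measured by Western blot with fluorescent secondary antibodies and expressed relative to DMSO vehicle (100%). DC50 came from a four-parameter variable-slope dose-response fit.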

SW620 cells = assay: 3D cell growth inhibition of SW620 cells carrying endogenous KRAS G12V mutation (CellTiter-Glo 3D, GI50); assay type: cell-based; conditions: SW620 cells, 6 days, read-out: SW620 3D cell growth GI50
Procedure, shortened: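 SW620 cells (endogenous KRAS G12V) grown in 3D were dosed next day with compound from DMSO stocks at various concentrations, then incubated 6 days at 37° C.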

Chain of KRAS-G12V/RAF1 (P01116-2 other isoform, or with tags, fused parts or gaps G12V): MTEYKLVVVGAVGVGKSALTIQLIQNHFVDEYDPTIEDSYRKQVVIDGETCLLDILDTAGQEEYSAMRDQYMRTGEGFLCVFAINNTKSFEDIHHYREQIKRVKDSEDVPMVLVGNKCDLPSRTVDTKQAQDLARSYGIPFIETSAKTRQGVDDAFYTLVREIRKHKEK

IC50 (KRAS-G12V/RAF1)	DC50 (KRAS G12V)	GI50 (SW620 cells; Homo sapiens, SW-620, 144 h)	GI50 (SW620 cells)	SMILES
20 to 200 nM	1 to 10 nM	< 10 nM	–	CCc1c(F)ccc2cc(O)cc(-c3ncc4c(N5CCC[C@@](C)(O)C5)nc(OCC5(CN6CC(N7CC(N8CCN(c9ccc%10c(c9)CN([C@H]9CCC(=O)NC9=O)C%10=O)CC8)C7)C6)CC5)nc4c3F)c12 [Compound 137, (S)-3-(5-(4-(1′-((1-(((7-(8-ethyl-7-fluoro-3-hydroxynaphthalen-1-yl)-8-fluoro-4-((R)-3-hydroxy-3-methylpiperidin-1-yl)pyrido[4,3-d]pyrimidin-2-yl)oxy)methyl)cyclopropyl)methyl)-[1,3′-biazetidin]-3-yl)piperazin-1-yl)-1-oxoisoindolin-2-yl)piperidine-2,6-dione]
20 to 200 nM	< 1 nM	< 10 nM	–	CCc1cccc2cc(O)cc(-c3ncc4c(N5CCC[C@@](C)(O)C5)nc(OCC5(CN6CCC7(CC6)CC(N6CCN(c8ccc9c(c8)CN([C@H]8CCC(=O)NC8=O)C9=O)CC6)C7)CC5)nc4c3F)c12 [Compound 138, (3S)-3-[5-[4-[7-[[1-[[7-(8-ethyl-3-hydroxy-1-naphthyl)-8-fluoro-4-[(3R)-3-hydroxy-3-methyl-1-piperidyl]pyrido[4,3-d]pyrimidin-2-yl]oxymethyl]cyclopropyl]methyl]-7-azaspiro[3.5]nonan-2-yl]piperazin-1-yl]-1-oxo-isoindolin-2-yl]piperidine-2,6-dione]
< 20 nM	> 100 nM	> 100 nM	–	CCc1cccc2cc(O)cc(-c3ncc4c(N5CCC[C@@](C)(O)C5)nc(OCC5(CN6CC7(CCC(N8CCN(c9ccc%10c(c9)CN([C@H]9CCC(=O)NC9=O)C%10=O)CC8)CC7)C6)CC5)nc4c3F)c12 [Compound 141, (S)-3-(5-(4-(2-((1-(((7-(8-ethyl-3-hydroxynaphthalen-1-yl)-8-fluoro-4-((R)-3-hydroxy-3-methylpiperidin-1-yl)pyrido[4,3-d]pyrimidin-2-yl)oxy)methyl)cyclopropyl)methyl)-2-azaspiro[3.5]nonan-7-yl)piperazin-1-yl)-1-oxoisoindolin-2-yl)piperidine-2,6-dione]
20 to 200 nM	1 to 10 nM	–	> 100 nM	CCc1cccc2cc(O)cc(-c3ncc4c(N5CCC[C@@](C)(O)C5)nc(OCC5(CN6CC7(CCC(N8CCN(c9ccc%10c(c9)CN([C@H]9CCC(=O)NC9=O)C%10=O)CC8)CC7)C6)CC5)nc4c3F)c12 [Compound 142, (S)-3-(5-(4-(2-((1-(((7-(8-ethyl-3-hydroxynaphthalen-1-yl)-8-fluoro-4-((R)-3-hydroxy-3-methylpiperidin-1-yl)pyrido[4,3-d]pyrimidin-2-yl)oxy)methyl)cyclopropyl)methyl)-2-azaspiro[3.5]nonan-7-yl)piperazin-1-yl)-1-oxoisoindolin-2-yl)piperidine-2,6-dione]
< 20 nM	< 1 nM	< 10 nM	–	CCc1c(F)ccc2cc(O)cc(-c3ncc4c(N5CCC[C@@](C)(O)C5)nc(OCC5(CN6CCC(N7CC8(CCN(c9ccc%10c(c9)CN(C9CCC(=O)NC9=O)C%10=O)CC8)C7)CC6)CC5)nc4c3F)c12 (stereo partly drawn) [Compound 143, 3-(5-(2-(1-((1-(((7-(8-ethyl-7-fluoro-3-hydroxynaphthalen-1-yl)-8-fluoro-4-((R)-3-hydroxy-3-methylpiperidin-1-yl)pyrido[4,3-d]pyrimidin-2-yl)oxy)methyl)cyclopropyl)methyl)piperidin-4-yl)-2,7-diazaspiro[3.5]nonan-7-yl)-1-oxoisoindolin-2-yl)piperidine-2,6-dione]
< 20 nM	< 1 nM	< 10 nM	–	CCc1c(F)ccc2cc(O)cc(-c3ncc4c(N5CCC[C@@](C)(O)C5)nc(OCC5(CN6CCC(N7CC(N8CCN(c9ccc%10c(c9)CN([C@H]9CCC(=O)NC9=O)C%10=O)CC8)C7)CC6)CC5)nc4c3F)c12 [Compound 146, (S)-3-(5-(4-(1-(1-((1-(((7-(8-ethyl-7-fluoro-3-hydroxynaphthalen-1-yl)-8-fluoro-4-((R)-3-hydroxy-3-methylpiperidin-1-yl)pyrido[4,3-d]pyrimidin-2-yl)oxy)methyl)cyclopropyl)methyl)piperidin-4-yl)azetidin-3-yl)piperazin-1-yl)-1-oxoisoindolin-2-yl)piperidine-2,6-dione]

Further lines, the compound ahead of its results:

SMILES	IC50 (KRAS-G12V/RAF1)	DC50 (KRAS G12V)	GI50 (SW620 cells; Homo sapiens, SW-620, 144 h)	GI50 (SW620 cells)
CCc1c(F)ccc2cc(O)cc(-c3ncc4c(N5CCC[C@@](C)(O)C5)nc(OCC5(CN6CC(N7CCC(N8CCN(c9ccc%10c(c9)CN([C@H]9CCC(=O)NC9=O)C%10=O)CC8)CC7)C6)CC5)nc4c3F)c12 [Compound 139, (S)-3-(5-(4-(1-(1-((1-(((7-(8-ethyl-7-fluoro-3-hydroxynaphthalen-1-yl)-8-fluoro-4-((R)-3-hydroxy-3-methylpiperidin-1-yl)pyrido[4,3-d]pyrimidin-2-yl)oxy)methyl)cyclopropyl)methyl)azetidin-3-yl)piperidin-4-yl)piperazin-1-yl)-1-oxoisoindolin-2-yl)piperidine-2,6-dione]	< 20 nM	< 1 nM	< 10 nM	–
CCc1cccc2cc(O)cc(-c3ncc4c(N5CCC[C@@](C)(O)C5)nc(OCC5(CN6CCC7(CC6)CCN(c6ccc8c(c6)CN(C6CCC(=O)NC6=O)C8=O)CC7)CC5)nc4c3F)c12 (stereo partly drawn) [Compound 140, 3-(5-(9-((1-(((7-(8-ethyl-3-hydroxynaphthalen-1-yl)-8-fluoro-4-((R)-3-hydroxy-3-methylpiperidin-1-yl)pyrido[4,3-d]pyrimidin-2-yl)oxy)methyl)cyclopropyl)methyl)-3,9-diazaspiro[5.5]undecan-3-yl)-1-oxoisoindolin-2-yl)piperidine-2,6-dione]	20 to 200 nM	< 1 nM	< 10 nM	–
CCc1c(F)ccc2cc(O)cc(-c3ncc4c(N5CCC[C@@](C)(O)C5)nc(OCC5(CN6CC(N7CC8(CCN(c9ccc%10c(c9)CN(C9CCC(=O)NC9=O)C%10=O)CC8)C7)C6)CC5)nc4c3F)c12 (stereo partly drawn) [Compound 144, 3-(5-(2-(1-((1-(((7-(8-ethyl-7-fluoro-3-hydroxynaphthalen-1-yl)-8-fluoro-4-((R)-3-hydroxy-3-methylpiperidin-1-yl)pyrido[4,3-d]pyrimidin-2-yl)oxy)methyl)cyclopropyl)methyl)azetidin-3-yl)-2,7-diazaspiro[3.5]nonan-7-yl)-1-oxoisoindolin-2-yl)piperidine-2,6-dione]	< 20 nM	< 1 nM	< 10 nM	–
CCc1c(F)ccc2cc(O)cc(-c3ncc4c(N5CCC[C@@](C)(O)C5)nc(OCC5(CN6CCC(N7CCC8(CCN(c9ccc%10c(c9)CN(C9CCC(=O)NC9=O)C%10=O)CC8)CC7)CC6)CC5)nc4c3F)c12 (stereo partly drawn) [Compound 145, 3-(5-(9-(1-((1-(((7-(8-ethyl-7-fluoro-3-hydroxynaphthalen-1-yl)-8-fluoro-4-((R)-3-hydroxy-3-methylpiperidin-1-yl)pyrido[4,3-d]pyrimidin-2-yl)oxy)methyl)cyclopropyl)methyl)piperidin-4-yl)-3,9-diazaspiro[5.5]undecan-3-yl)-1-oxoisoindolin-2-yl)piperidine-2,6-dione]	< 20 nM	1 to 10 nM	< 10 nM	–
